In patent publication EP3156398A1, “AGONISTS OF THE CHEMOKINE RECEPTOR CXCR3” (Friedrich-Alexander-Universität Erlangen-Nürnberg, priority 2015, dated 2017):
Entries after “also recorded” stand apart in the source; their conditions may differ.

Tests used:
[1] = target: T1, CXCR3 (Homo sapiens, UniProt P49682); test: [35S]GTPγS incorporation assay; assay type: biochemical; conditions: for CXCR3 Efficacy (%) ± SEM: % of CXCL11 mediated effect; for CXCR3 Efficacy (%) ± SEM / CXCR3 pEC50 ± SEM: membrane preparations of HEK293T stably expressing CXCR3; for CXCR3 pEC50 ± SEM: mean of three experiments in triplicate; for CXCR3 mediated G protein activation (result in words): [35S]GTPγS incorporation
T1 construct: expressed in transfected cells; host or cells: HEK293 / HEK293T cells, stably transfected; membrane preparations
T1 sequence (P49682 1-368): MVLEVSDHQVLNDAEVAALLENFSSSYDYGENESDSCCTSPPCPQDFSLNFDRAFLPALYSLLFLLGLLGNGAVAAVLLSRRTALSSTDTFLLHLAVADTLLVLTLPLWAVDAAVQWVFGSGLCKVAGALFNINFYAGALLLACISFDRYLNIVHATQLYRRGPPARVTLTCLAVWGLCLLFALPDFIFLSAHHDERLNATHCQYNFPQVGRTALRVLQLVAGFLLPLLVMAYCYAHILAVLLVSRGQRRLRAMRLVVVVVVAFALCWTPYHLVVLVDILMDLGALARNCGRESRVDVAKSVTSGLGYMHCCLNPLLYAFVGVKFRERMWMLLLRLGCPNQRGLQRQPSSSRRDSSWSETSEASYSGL
Summary of the method: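 Membranes from HEK293 cells stably expressing human CXCR3 (30 µg/mL protein) preincubated 30 min at 37 °C with test compound, CXCL11 and 1 µM GDP in HEPES/MgCl2/NaCl/saponin buffer, pH 7.4. Then 0.10 nM [35S]GTPγS added for 30 min at 37 °C; filter-bound radioactivity counted, triplicates, 3–4 experiments.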

[2] = target: T2, CXCR3-PK2 (Homo sapiens, UniProt P49682); test: β-arrestin 2 recruitment assay (PathHunter, DiscoveRx), CXCR3-PK2 construct; assay type: cell-based; conditions: CXCR3-PK2; for CXCR3-PK2 pEC50 ± SEM: HEK293-T cells, PathHunter
T2 construct: expressed in transfected cells
T2 sequence (P49682 1-368): T1 sequence (P49682 1-368)
Summary of the method: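 HEK293 cells stably expressing the β-gal enzyme acceptor were transiently transfected with ProLink-tagged CXCR3 and cultured overnight at 37 °C. Compounds or CXCL11, in PBS pH 7.4 with 0.20% BSA, were added for 4 h, followed by detection mix for 60 min at room temperature. Recruitment was read as chemiluminescence from enzyme fragment complementation.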

| SMILES | CXCR3 Efficacy (%) ± SEM ([1]; listed as 14/FAUC1104) [%] | CXCR3 Efficacy (%) ± SEM ([1]; listed as FAUC1104) [%] | CXCR3 pEC50 ± SEM ([1]; listed as 14/FAUC1104) | CXCR3 pEC50 ± SEM ([1]; listed as FAUC1104) | Emax ([1]; read-out: CXCR3 Efficacy (%) ± SEM) [%] | CXCR3 Efficacy (%) ± SEM [1] | CXCR3 mediated G protein activation (result in words) ([1]; listed as 11/FAUC1036) | CXCR3 mediated G protein activation (result in words) ([1]; listed as FAUC1036) | CXCR3 pEC50 ± SEM [1] | CXCR3-PK2 efficacy (%) ([2]; % of CXCL11 mediated effect, listed as 11/FAUC103 6) | Emax ([2]; % of CXCL11 mediated effect, read-out: CXCR3-PK2 efficacy (%) (converted)) | CXCR3-PK2 pEC50 ± SEM ([2]; listed as 11/FAUC103 6) | CXCR3-PK2 pEC50 ± SEM ([2]; listed as FAUC1036) |
| --- | --- | --- | --- | --- | --- | --- | --- | --- | --- | --- | --- | --- | --- |
| COc1ccc(C(=O)CCC(=O)N2Cc3ccccc3C[C@H]2C(=O)NCCCC[C@H](NC(=O)OC(C)(C)C)C(=O)NCC(c2ccccc2)c2ccccc2)cc1 [Compound 14, Tert-butyl ((S)-1-((2,2-diphenylethyl)amino)-6-((S)-2-(4-(4-methoxyphenyl)-4-oxobutanoyl)-1,2,3,4-tetrahydroisoquinoline-3-carboxamido)-1-oxohexan-2-yl)carbomate] | 50±19 | 50 | 5.22±0.31 | 5.22 | 50 |  |  |  |  |  |  |  |  |
| CC(C)(C)OC(=O)N[C@@H](CCCCNC(=O)[C@@H]1Cc2ccccc2CN1C(=O)CCC(=O)c1ccccc1)C(=O)NCC(c1ccccc1)c1ccccc1 [Compound 11, Tert-butyl ((S)-1-((2,2-diphenylethyl)amino)-1-oxo-6-((S)-2-(4-oxo-4-phenylbutanoyl)-1,2,3,4-tertahydroisoquinoline-3-carboxamido)hexan-2-yl)carbamate] |  |  |  |  |  | No effect | failed to induce CXCR3 mediated G protein activation | without any activation of G proteins; also recorded: has no effect on the G-protein signalling | No effect | 66±8 | 66 | 6.58±0.30 | 6.64 ± 0.30 |
